Peptide text beside a SMILES is read from it. * marks the point of attachment. 5FAM = O=C1OC2(c3ccc(O)cc3Oc3cc(O)ccc32)c2ccc(C(=O)*)cc21
Experiments:
[1] = mass spectroscopy, animal model
[2] = ROS-scavenging activity, DPPH assay (SFNs); assay type: biochemical
Excerpt: Osteoarthritis (OA) represents a musculoskeletal pathological condition characterized by chondrocytes apoptosis, extracellular matrix degradation and consequent cartilage degeneration; the main mechanisms involved in OA onset seem to be oxidative stress and the overproduction of pro-inflammatory cytokines, such as interleukin-1β (IL-1β) and tumour necrosis factor-α (TNF-α). Systemic therapy with anti-inflammatory drugs represents the “gold standard” in OA treatment, and Celecoxib is the first choice. However, it presents limited water solubility, poor in vivo bioavailability, fast metabolism and bloodstream clearance^2. Nanomedicine is considered a good strategy to overcome these problems; in fact, nanosystems are able to improve the solubility and the bioavailability of poorly-soluble drugs, and to control/target the drug release, avoiding undesired side effects. Thanks to its biocompatibility and biodegradability, silk fibroin represents the ideal biomaterial candidate for the nanoparticle production. In this study, we selected silk fibroin nanoparticles (SFNs) as the delivery system for two anti-inflammatory hydrophobic drugs: celecoxib (CXB) and curcumin (CUR). […] The safety and efficacy of nanosystems were determined in terms of hemolytic properties, cytotoxicity, ROS-scavenging activity and anti-inflammatory potency in an OA in vitro cell model. […]

intracellular S. aureus = assay: Intracellular antibacterial activity in keratinocytes; assay type: cell-based, Staphylococcus aureus; settings: HaCaT cells
[3] = rat, in vivo
Protocol: In in vivo studies, male Sprague−Dawley rats received a femoral intravenous infusion of IND or oral administrations of MPs and free IND; the plasma of rats was analyzed by HPLC over time in order to evaluate the absolute bioavailability of oral doses.

[4] = Franz cells, porcine cornea, preliminary data, relevant variability
Protocol: To assess their ex vivo corneal permeability, permeation experiments were carried out using fresh and whole porcine corneas mounted on Franz cells.

HeLa and G361 [5] = assay: Photodynamic ROS production; assay type: cell-based; settings: TMPyP: 5 μM, 25 Jcm^−2; ZnTPPS4: 0.25 μM, 5 Jcm^−2
Protocol: (§1) Photodynamic therapy (PDT) is currently another option for the treatment of tumors. This therapy is a combination of a photodynamically-active substance and light of a suitable wavelength. Two tumor cell cultures—HeLa and G361 were used for the in vitro study. Cells were cultured in 96-well plates with TMPyP and ZnTPPS4 photosensitizers at concentrations of 0.25 μM, 0.5 μM and 5 μM. As a light source, a diode emitter with a wavelength of 414 nm and a radiation intensity of 5 Jcm^−2, 25 Jcm^−2 was used and at irradiation times of 1 min 33 s, 7min 43 s. In this study, three measurement methods were used—a viability test (MTT), determination of ROS production and monitoring of changes in membrane potential (JC1). […] A suitable combination of photosensitizer and radiation may be an effective therapy for the treatment of cancer.

HeLa and G361 [6] = assay: Photodynamic viability test (MTT); assay type: cell-based; settings: 414 nm irradiation
Protocol: as §1

[7] = no reference given; cited from earlier work
[8] = tested on: Human Corneal Epithelial (HCE) cells; assay: Inflammation model in HCE cells, secreted IL-6 by ELISA; assay type: cell-based; settings: 72 h
[9] = Stability of rhNGF formulated solutions; assay type: physicochemical
Protocol: Drug product formulation. The development of the formulation was addressed to obtain a stable rhNGF solution with suitable characteristics for ocular instillation (pH and osmolality in particular). Excipients already used in ophthalmic preparation were preferred. The stability of rhNGF formulated solutions at different concentrations was investigated in the range of temperature −20 °C–+25 °C. […] Chemical oxidative instability was minimized by the appropriate choice of preparation procedures, lowering O2 head space, using inertized containers and by the addition of an antioxidant. Consequently, methionine as component of formulation, O2 containment during the preparation and O2 head space reduction after filling and before sealing of the container were introduced.

blood clots = assay: Blood clot resolution in murine mesentery venules; assay type: in vivo
Excerpt: (§2) Here, a novel thrombolytic nanoagent is realized by conjugating directly the clinical formulation of tPA to the porous structure of soft discoidal polymeric nanoconstructs (tPA-DPNs).

[10] = after 3 h of exposure to serum proteins
Excerpt: as §2

Protocol for chondrocytes: The safety and efficacy of nanosystems were determined in terms of hemolytic properties, cytotoxicity, ROS-scavenging activity and anti-inflammatory potency in an OA in vitro cell model. In particular, chondrocytes were stimulated with IL-1β to simulate an inflammatory condition, and treated with nanoparticles or free drugs.

Compound: CN(Cc1nc2c(N)nc(N)nc2[nH]c1=O)c1ccc(C(=O)N[C@@H](CCC(=O)O)C(=O)O)cc1 [7OH-MTX, 7-hydroxymethotrexate]
- metabolite status in vivo [1]: not the major metabolite

Compound: COc1cc(/C=C/C(=O)CC(=O)/C=C/c2ccc(O)c(OC)c2)ccc1O [CUR, Curcumin]
- cytotoxicity on chondrocytes (chondrocytes): highly cytotoxic

Compound: Cc1ccc(-c2cc(C(F)(F)F)nn2-c2ccc(S(N)(=O)=O)cc2)cc1 [CXB, celecoxib]
- antioxidant effect [2]: inhibitory
- cytotoxicity on chondrocytes (chondrocytes): highly cytotoxic

Compound: CNC(C)C1CCC(N)C(OC2C(N)CC(N)C(OC3OCC(C)(O)C(NC)C3O)C2O)O1 (stereo not drawn) [GM, gentamicin]
- intracellular antibacterial activity (intracellular S. aureus): significant intracellular activity

Compound: COc1ccc2c(c1)c(CC(=O)O)c(C)n2C(=O)c1ccc(Cl)cc1 [IND, indomethacin]
- oral bioavailability [3]: about 20%

Compound: CC[C@H](C)[C@H](NC(=O)[C@H](CCCCN)NC(=O)[C@@H](NC(=O)[C@H](CCC(N)=O)NC(=O)[C@H](CCCNC(=N)N)NC(=O)CNC(=O)CNC(=O)c1ccc2c(c1)C(=O)OC21c2ccc(O)cc2Oc2cc(O)ccc21)[C@@H](C)CC)C(=O)N[C@@H](Cc1c[nH]c2ccccc12)C(=O)N[C@@H](Cc1ccccc1)C(=O)N[C@@H](CCC(N)=O)C(=O)N[C@@H](CC(N)=O)C(=O)N[C@@H](CCCNC(=N)N)C(=O)N[C@@H](CCCNC(=N)N)C(=O)N[C@@H](CCSC)C(=O)N[C@@H](CCCCN)C(=O)N[C@@H](Cc1c[nH]c2ccccc12)C(=O)N[C@@H](CCCCN)C(=O)N[C@@H](CCCCN)C(=O)O [PNTarg]
- permeability coefficient / diffusion relative to PNT [4]: did not influence its diffusion with respect to PNT

Compound: CC[C@H](C)[C@H](NC(=O)[C@H](CCCCN)NC(=O)[C@@H](NC(=O)[C@H](Cc1c[nH]c2ccccc12)NC(=O)[C@H](Cc1ccccc1)NC(=O)[C@H](CCC(N)=O)NC(=O)[C@H](CC(N)=O)NC(=O)[C@H](CCCNC(=N)N)NC(=O)[C@H](CCCNC(=N)N)NC(=O)[C@H](CCSC)NC(=O)[C@H](CCCCN)NC(=O)[C@H](Cc1c[nH]c2ccccc12)NC(=O)[C@H](CCCCN)NC(=O)[C@H](CCCCN)NC(=O)CNC(=O)CNC(=O)c1ccc2c(c1)C(=O)OC21c2ccc(O)cc2Oc2cc(O)ccc21)[C@@H](C)CC)C(=O)N[C@@H](CCC(N)=O)C(=O)N[C@@H](CCCNC(=N)N)C(=O)O [PNTlys] (5FAM-GGKKWKMRRNQFWIKIQR-OH)
- permeability coefficient / diffusion relative to PNT [4]: did not affect the behavior

Compound: C[n+]1ccc(-c2c3nc(c(-c4cc[n+](C)cc4)c4ccc([nH]4)c(-c4cc[n+](C)cc4)c4nc(c(-c5cc[n+](C)cc5)c5ccc2[nH]5)C=C4)C=C3)cc1 [TMPyP]
- ROS production (HeLa and G361 [5]): more pronounced increase
- efficacy in MTT test (HeLa and G361 [6]): higher efficacy

Compound: CO[C@H]1/C=C/O[C@@]2(C)Oc3c(C)c(O)c4c(O)c(c(/C=N/N5CCN(C)CC5)c(O)c4c3C2=O)NC(=O)/C(C)=C\C=C\[C@H](C)[C@H](O)[C@@H](C)[C@@H](O)[C@@H](C)[C@H](OC(C)=O)[C@@H]1C [rifampicin]
- solubility in water [7]: 0.14 % w/v

Compound: TNFα
- secreted IL6 relative to control cells [8]: fivefold higher
- secreted IL6 ([8]; TNFα 10 ng/mL): up to 0.058 pg/mL/n° cells

Compound: rhNGF: human recombinant Nerve Growth Factor
- deamidation on storage ([9]; formulated solutions at different concentrations, −20 °C–+25 °C): no deamidation was observed
- oxidation on storage ([9]; formulations after 3–9 months of storage): only an oxidized rhNGF form was observed in some cases

Compound: tPA-DPNs: clinical formulation of tPA conjugated to soft discoidal polymeric nanoconstructs
- clots dissolved / vessels (blood clots; 1.0 mg/kg, about 1 tenth of the clinical dose): 60%
- blood clots resolved / vessels recanalized (blood clots; intravenous, 2.5 mg/kg): ~90%
- original activity preserved [10]: over 60%
